Among the test systems are RXF 393; NCI-H522; NCI-H226; HCC 2998; U-251; SK-MEL-2; SK-MEL-5; CAKI-1; SW-620; NCI-H460; SR; HOP-62; NCI/ADR-RES; T47D; TK-10; HCT-116; RPMI-8226; HL-60; MOLT-4; M19-MEL.
Assay in all cases: NCI-60 cell line screen, 48 h

These results are taken from ChEMBL document CHEMBL1201862, “PubChem BioAssay data set” (2004).

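All cell lines were grown in 96-well plates and treated with compound for 48 hours. GI50 marks 50% less growth.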 Activity calls are given as the source filed them. Rule as the data show it: active = GI50 up to about 1.1 µM and inactive = higher.

Turning to `Clc1ccc2c(c1)N(CCCN1CCCC13CCCCC3)c1ccccc1S2`, the GI50 with RXF 393 is 5.93 µM (inactive); in the experiment with NCI-H522, 10.6 µM (inactive); in the experiment on NCI-H226, 35.3 µM (inactive); in the experiment with HCC 2998 it was 3.08 µM (inactive); in the experiment with U-251, 10.2 µM (inactive); in the experiment with SK-MEL-2 it was 9.77 µM (inactive). Further, the GI50 was > 41.9 µM (inactive) in the experiment on SK-MEL-5; 24.2 µM (inactive) in the experiment on CAKI-1; 14.9 µM (inactive) with SW-620; 7.48 µM (inactive) in the experiment with NCI-H460; 4.39 µM (inactive) in the experiment with SR; 16.3 µM (inactive) with HOP-62. Moreover, the GI50 in the experiment with NCI/ADR-RES was 14.7 µM (inactive); in the experiment with T47D, 11.9 µM (inactive); with TK-10, 14.5 µM (inactive); in the experiment with HCT-116, 13.9 µM (inactive); in the experiment with RPMI-8226, 2.79 µM (inactive); in the experiment with HL-60 it was 0.152 µM (active). Moreover, the GI50 in the experiment on MOLT-4 was 3.76 µM (inactive).

Consider `O=C(Nc1nc(C23CC4CC(CC(C4)C2)C3)cs1)c1cc2cc(Br)cc(Br)c2oc1=O`, for which the GI50 with RXF 393 is 31 µM (inactive); with NCI-H522, > 100 µM (inactive); with NCI-H226, 33.2 µM (inactive); in the experiment with HCC 2998 it was 75.7 µM (inactive); with U-251 it was 20.3 µM (inactive); in the experiment on SK-MEL-2, 51.5 µM (inactive). Moreover, the GI50 was > 100 µM (inactive) in the experiment with SK-MEL-5; > 100 µM (inactive) in the experiment with CAKI-1; 43.2 µM (inactive) with SW-620; 37 µM (inactive) in the experiment with NCI-H460; 32.3 µM (inactive) in the experiment on SR; 70.8 µM (inactive) in the experiment on HOP-62. For the same molecule, the GI50 was > 100 µM (inactive) in the experiment with NCI/ADR-RES; > 100 µM (inactive) in the experiment with T47D; > 100 µM (inactive) with TK-10; 59 µM (inactive) in the experiment on HCT-116; 67.9 µM (inactive) with RPMI-8226; 65.5 µM (inactive) in the experiment with HL-60. In the experiment on MOLT-4, the GI50 was 50.1 µM (inactive).

As to `O=C1CC(Cl)c2c1csc2Br` (configuration not stated), the GI50 was 19 µM (inactive) in the experiment with RXF 393; 3.26 µM (inactive) in the experiment with NCI-H522; 29.9 µM (inactive) in the experiment on NCI-H226; 17.4 µM (inactive) with HCC 2998; 16.7 µM (inactive) in the experiment with U-251; 15.1 µM (inactive) in the experiment on SK-MEL-2. The GI50 is 16.9 µM (inactive) in the experiment on SK-MEL-5; 5.61 µM (inactive) in the experiment on CAKI-1; 3.48 µM (inactive) in the experiment with SW-620; 20.4 µM (inactive) in the experiment on NCI-H460; 4.56 µM (inactive) with SR; 14.5 µM (inactive) with HOP-62. Besides, the GI50 is 20.9 µM (inactive) in the experiment with NCI/ADR-RES; 23.1 µM (inactive) with T47D; 16 µM (inactive) in the experiment with TK-10; 15.9 µM (inactive) in the experiment on HCT-116; 1.03 µM (active) in the experiment on RPMI-8226; 21.4 µM (inactive) in the experiment with HL-60. Further, the GI50 in the experiment with MOLT-4 is 3.66 µM (inactive).

Take `Cc1c(F)c(N)c2c(=O)cc(-c3ccc(NC(=O)C(N)CCCNC(=N)N)c(F)c3)oc2c1F` (configuration not stated): the GI50 in the experiment on RXF 393 was 21.6 µM (inactive); with NCI-H522, 24.8 µM (inactive); in the experiment on NCI-H226, 0.111 µM (active); in the experiment on HCC 2998, 0.134 µM (active); in the experiment on U-251, 3.6 µM (inactive); in the experiment with SK-MEL-2, 23.4 µM (inactive). In addition, the GI50 in the experiment on SK-MEL-5 was 19.7 µM (inactive); with CAKI-1, 0.0792 µM (active); with SW-620, > 61.5 µM (inactive); in the experiment with NCI-H460 it was 0.146 µM (active); in the experiment on SR it was 43 µM (inactive); in the experiment with HOP-62, > 52.2 µM (inactive). Besides, the GI50 is 23.9 µM (inactive) with NCI/ADR-RES; 0.411 µM (active) in the experiment with T47D; 0.146 µM (active) in the experiment on TK-10; 13.2 µM (inactive) in the experiment with HCT-116; > 33.5 µM (inactive) with RPMI-8226; > 52 µM (inactive) in the experiment with HL-60. In addition, in the experiment on MOLT-4, the GI50 is 34.6 µM (inactive).

Turning to `C/N=c1/oc2ccccc2cc1C(N)=O`, the GI50 in the experiment on RXF 393, in the experiment on NCI-H522, in the experiment on NCI-H226, in the experiment with HCC 2998, with U-251 and in the experiment on SK-MEL-2 was > 100 µM (inactive) throughout. The GI50 in the experiment on SK-MEL-5, in the experiment on CAKI-1, with SW-620, in the experiment on NCI-H460, in the experiment on SR and in the experiment with HOP-62 was > 100 µM (inactive) in each case. Further, the GI50 in the experiment with NCI/ADR-RES, in the experiment on T47D, in the experiment on TK-10, with HCT-116, in the experiment with RPMI-8226 and in the experiment on HL-60 was > 100 µM (inactive) each time. In addition, the GI50 in the experiment on MOLT-4 was > 100 µM (inactive).

For `COC(=O)/C(=N\Nc1nnc(C)n1N)C(C#N)c1ccc(Cl)cc1` (configuration not stated), the GI50 in the experiment with RXF 393, with NCI-H226, in the experiment with HCC 2998, in the experiment on U-251, in the experiment on SK-MEL-2 and with CAKI-1 was > 100 µM (inactive) throughout. Besides, the GI50 with SW-620, in the experiment with NCI-H460, in the experiment with M19-MEL, in the experiment with HOP-62, in the experiment with TK-10 and in the experiment with HCT-116 was > 100 µM (inactive) each time. The GI50 in the experiment on RPMI-8226 is > 100 µM (inactive).

On to `N#CC(C(=O)/C(=N\Nc1nc(S)nn1N)C(C#N)c1ccc(Cl)cc1)c1ccc(Cl)cc1` (configuration not stated), for which the GI50 in the experiment on RXF 393, in the experiment on NCI-H226, in the experiment on HCC 2998, with U-251, in the experiment with SK-MEL-2 and with CAKI-1 was > 100 µM (inactive) throughout. For the same molecule, the GI50 with SW-620, in the experiment with NCI-H460, in the experiment with M19-MEL, in the experiment on HOP-62, with TK-10 and with HCT-116 was > 100 µM (inactive) in each case. The GI50 in the experiment with RPMI-8226 is > 100 µM (inactive).

On to `COc1ccccc1NC(=O)CC(=O)N1N=C(N2c3ccccc3Sc3ccccc32)CC1c1ccccc1` (configuration not stated), for which the GI50 in the experiment with RXF 393, in the experiment on NCI-H522, in the experiment with NCI-H226, in the experiment with HCC 2998, in the experiment with U-251 and in the experiment on SK-MEL-2 was > 100 µM (inactive) in each case. Moreover, the GI50 with SK-MEL-5, in the experiment on CAKI-1, in the experiment with SW-620, with NCI-H460, with SR and in the experiment on HOP-62 was > 100 µM (inactive) throughout. In addition, the GI50 in the experiment on NCI/ADR-RES, in the experiment on T47D, in the experiment on TK-10, with HCT-116, in the experiment with RPMI-8226 and in the experiment on HL-60 was > 100 µM (inactive) throughout. Further, in the experiment on MOLT-4, the GI50 is > 100 µM (inactive).

Consider `O=c1n(-c2ccc(Cl)c(Cl)c2)c(=O)n(-c2ccc(Cl)c(Cl)c2)c(=O)n1-c1ccc(Cl)c(Cl)c1`, for which the GI50 in the experiment with RXF 393 was 3.21 µM (inactive); in the experiment with NCI-H522 it was 3.52 µM (inactive); in the experiment with NCI-H226, 2.82 µM (inactive); in the experiment on HCC 2998, 2.2 µM (inactive); with U-251 it was 3.71 µM (inactive); in the experiment on SK-MEL-2, 2.15 µM (inactive). Besides, the GI50 in the experiment on SK-MEL-5 was 1.9 µM (inactive); in the experiment with CAKI-1, 3.49 µM (inactive); in the experiment on SW-620, 3.15 µM (inactive); with NCI-H460, 1.59 µM (inactive); with SR, 3.55 µM (inactive); in the experiment on HOP-62, 3.67 µM (inactive). The GI50 in the experiment with NCI/ADR-RES was 3.1 µM (inactive); in the experiment with T47D, 1.57 µM (inactive); in the experiment with TK-10, 5.53 µM (inactive); in the experiment on HCT-116 it was 1.2 µM (inactive); in the experiment on RPMI-8226 it was 0.558 µM (active); with HL-60 it was 2.89 µM (inactive). For the same molecule, the GI50 in the experiment on MOLT-4 was 1.87 µM (inactive).

On to `O=C1C(Cl)=C(N(C(=O)c2ccccc2)C(=O)c2ccccc2)C(=O)c2ccccc21`, for which the GI50 in the experiment on RXF 393 is 3.66 µM (inactive); in the experiment with NCI-H522 it was 5.7 µM (inactive); in the experiment with NCI-H226, > 100 µM (inactive); in the experiment on HCC 2998, 12.1 µM (inactive); in the experiment on U-251 it was 5.98 µM (inactive); in the experiment on SK-MEL-2, 11.4 µM (inactive). Moreover, the GI50 in the experiment with SK-MEL-5 was 3.6 µM (inactive); in the experiment with CAKI-1 it was 10.5 µM (inactive); in the experiment with SW-620, 5.15 µM (inactive); in the experiment with NCI-H460, 5.12 µM (inactive); in the experiment on SR, 15.5 µM (inactive); with HOP-62, 49 µM (inactive). Moreover, the GI50 is 29.2 µM (inactive) with NCI/ADR-RES; 4.68 µM (inactive) in the experiment on T47D; 21.2 µM (inactive) in the experiment with TK-10; 4.12 µM (inactive) in the experiment with HCT-116; 2.05 µM (inactive) in the experiment on RPMI-8226; 1.08 µM (active) in the experiment on HL-60. Further, in the experiment with MOLT-4, the GI50 is 55 µM (inactive).

As for `CCOC(=O)C1C(=O)C=C(c2cc(C)ccc2O)CC1c1cccc(Br)c1` (configuration not stated), the GI50 was 14.4 µM (inactive) with RXF 393; 14.7 µM (inactive) in the experiment on NCI-H522; 15.7 µM (inactive) in the experiment with NCI-H226; 17.9 µM (inactive) with HCC 2998; 16.1 µM (inactive) in the experiment on U-251; 18.5 µM (inactive) in the experiment on SK-MEL-2. For the same molecule, the GI50 in the experiment on SK-MEL-5 was 14.2 µM (inactive); in the experiment with CAKI-1, 21.9 µM (inactive); with SW-620, 25 µM (inactive); in the experiment on NCI-H460, 19.5 µM (inactive); in the experiment with SR, 5.13 µM (inactive); in the experiment with HOP-62, 46.7 µM (inactive). Besides, the GI50 in the experiment on NCI/ADR-RES was 13.4 µM (inactive); with T47D it was 18.6 µM (inactive); in the experiment on TK-10, 17.7 µM (inactive); in the experiment on HCT-116 it was 18 µM (inactive); in the experiment with RPMI-8226 it was 13.9 µM (inactive); with HL-60 it was 20.9 µM (inactive). In the experiment with MOLT-4, the GI50 was 16 µM (inactive).
